Source: patent publication US20230212131A1, “COLLAGEN 1 TRANSLATION INHIBITORS AND METHODS OF USE THEREOF” (Anima Biotech Inc., priority 2020, published 2023)

System: collagen 1 (COL1)
Assay: WI-38 collagen 1 inhibition assay
Type: cell-based, human
Conditions: Cellular EC50, WI-38 cells; values are classes of LogEC50
Excerpt: All compounds were profiled for cellular potency in inhibition of collagen 1 (COL1) protein translation using a phenotypic screening platform.
WI-38 cells (ATCC® CCL-75™) were maintained in MEM EAGLE (NEAA) W. GLUTAMIN (Biological Industries, Cat. 06-1040-15-1A) containing 10% fetal bovine serum (FBS) and 1% Penicillin-Streptomycin Solution. To synchronize the cells (cell cycle synchronization) prior to induction of collagen synthesis, the cells were starved using DMEM-low glucose supplemented with 0.25% FBS for two hours and then without FBS for 24 hours. To induce collagen synthesis, the cells were treated with a collagen induction cocktail for the indicated time. Compounds were added with induction.
Cells in 96-well or 384-well plates were fixed for 20 min in 4% paraformaldehyde (PFA, ENCO, Cat. sc-281692). Following two washes with 1×PBS, cells were treated with hydrogen peroxide (Acros, Cat: 7722-84-1) for 10 minutes and then washed twice with 1×PBS. Cells were then incubated over-night at 4° C. with Anti-Collagen I (Sigma-Aldrich, Cat: C 2456) antibody and washed three times with 1×PBS. Cells were then incubated with a suitable secondary fluorescently-tagged antibody and nuclei stained with DAPI, for 1 hour, and then washed 3 times with 1×PBS.
Cell images were taken with Operetta (Perkin Elmer, USA), a wide-field fluorescence microscope at 20× magnification. After acquisition, the images were transferred to Columbus software (Perkin-Elmer) for image analysis. In Columbus, cells were identified by their nucleus, using the “Find Nuceli” module and cytoplasm was detected based on the secondary antibody channel. Subsequently, the fluorescent signal was enumerated in the identified cell region. Data was exported to a data analysis and visualization software, Tibco Spotfire, USA.

| SMILES | COL1 Efficacy (LogEC50) |
| --- | --- |
| COc1ccc(C(=O)Nc2nc(-c3cccnc3C)cs2)cc1 [Compound 343, 4-methoxy-N-[4-(2-methyl-3-pyridyl)thiazol-2-yl]benzamide] | +++ (+++: <−6) |
| Cn1cc(-c2csc(NC(=O)c3ccc(N4CCOCC4)cc3)n2)cn1 [compound 354, N-[4-(1-methylpyrazol-4-yl)thiazol-2-yl]-4-morpholino-benzamide] | ++ (++: −5 to −6) |
| COc1ccc(C(=O)Nc2nc(-c3cncnc3C)cs2)cc1 [Compound 335, 4-methoxy-N-[4-(4-methylpyrimidin-5-yl)thiazol-2-yl]benzamide] | + (+: >−5) |
| CC(=O)NCc1ccccc1-c1csc(NC(=O)c2ccc(N3CCN(S(C)(=O)=O)CC3)cn2)n1 [compound 480] | − (−: inactive) |
| COCc1ccccc1-c1csc(NC(=O)c2ccc(N3CCN(S(C)(=O)=O)CC3)cn2)n1 [Compound 447, N-(4-(2-(methoxymethyl)phenyl)thiazol-2-yl)-5-(4-(methylsulfonyl)piperazin-1-yl)picolinamide] | +++ (+++: <−6) |
| O=C(Nc1nc(-c2ccccc2Cl)cs1)[C@H]1C[C@H](N2CCOCC2)C1 [compound 422, (1r,3r)-N-(4-(2-chlorophenyl)thiazol-2-yl)-3-morpholinocyclobutane-1-carboxamide] | ++ (++: −5 to −6) |
| COc1ccc(C(=O)Nc2nc(-c3ccc(F)cc3F)cs2)cc1 [Compound 325, N-[4-(2,4-difluorophenyl)thiazol-2-yl]-4-methoxy-benzamide] | +++ (+++: <−6) |
| COc1cc(N2CCOCC2)ccc1C(=O)Nc1nc(-c2ccccc2Cl)cs1 [Compound 441, N-(4-(2-chlorophenyl)thiazol-2-yl)-2-methoxy-4-morpholinobenzamide] | ++ (++: −5 to −6) |
| O=C(Nc1nc(-c2ccccc2Cl)cs1)c1ccc(N2CCC(CCO)CC2)cn1 [compound 478, N-(4-(2-chlorophenyl)thiazol-2-yl)-5-(4-(2-hydroxyethyl)piperidin-1-yl)picolinamide] | +++ (+++: <−6) |
| O=C(Nc1nc(-c2ccccc2Cl)cs1)c1ccc(N2CCC(CO)CC2)cn1 [compound 479, N-(4-(2-chlorophenyl)thiazol-2-yl)-5-(4-(hydroxymethyl)piperidin-1-yl)picolinamide] | +++ (+++: <−6) |
| O=C(Nc1nc(-c2cc(Cl)sc2Cl)cs1)c1ccc(Cl)cc1 [compound 311] | ++ (++: −5 to −6) |
| O=C(Nc1nc(-c2cccnc2)cs1)c1ccc(N2CCOCC2)cc1 [compound 352, 4-morpholino-N-[4-(3-pyridyl)thiazol-2-yl]benzamide] | + (+: >−5) |
| CC(=O)N1CCN(c2ccc(C(=O)Nc3nc(-c4ccccc4Cl)cs3)c(C)c2)CC1 [compound 473, 4-(4-acetylpiperazin-1-yl)-N-(4-(2-chlorophenyl)thiazol-2-yl)-2-methylbenzamide] | +++ (+++: <−6) |
| CC(=O)N1CCN(c2ccc(C(=O)Nc3nc(-c4ccccc4Cl)cs3)s2)CC1 [Compound 463, 5-(4-acetylpiperazin-1-yl)-N-(4-(2-chlorophenyl)thiazol-2-yl)thiophene-2-carboxamide] | +++ (+++: <−6) |
| CS(=O)(=O)N1CCN(C(=O)[C@H]2C[C@@H](C(=O)Nc3nc(-c4ccccc4Cl)cs3)C2)CC1 [compound 429] | + (+: >−5) |
| COc1ccc(C(=O)Nc2nc(-c3ccc(C)cc3C)cs2)cc1 [Compound 301, N-(4-(2,4-dimethylphenyl)thiazol-2-yl)-4-methoxybenzamide] | +++ (+++: <−6) |
| COc1ccc(C(=O)Nc2nc(-c3ccc(Cl)cc3Cl)cs2)cc1 [Compound 300, N-(4-(2,4-dichlorophenyl)thiazol-2-yl)-4-methoxybenzamide] | ++ (++: −5 to −6) |
| COc1ccccc1-c1csc(NC(=O)c2ccc(N3CCOCC3)cc2)n1 [compound 351, N-[4-(2-methoxyphenyl)thiazol-2-yl]-4-morpholino-benzamide] | +++ (+++: <−6) |
| COc1ncc(C(=O)Nc2nc(-c3cccnc3C)cs2)cn1 [compound 355, 2-methoxy-N-[4-(2-methyl-3-pyridyl)thiazol-2-yl]pyrimidine-5-carboxamide] | − (−: inactive) |

| SMILES | COL1 Efficacy (LogEC50) |
| --- | --- |
| O=C(Nc1nc(-c2ccccc2Cl)cs1)C12CC(N3CCOCC3)(C1)C2 [Compound 416, N-(4-(2-chlorophenyl)thiazol-2-yl)-3-morpholinobicyclo[1.1.1]pentane-1-carboxamide] | ++ (++: −5 to −6) |
| CC(=O)N1CCN(c2csc(C(=O)Nc3nc(-c4ccccc4Cl)cs3)c2)CC1 [Compound 462, 4-(4-acetylpiperazin-1-yl)-N-(4-(2-chlorophenyl)thiazol-2-yl)thiophene-2-carboxamide] | ++ (++: −5 to −6) |
| O=C(Nc1nc(-c2ccccc2Cl)cs1)c1ccc(N2CCC(O)CC2)cn1 [Compound 446, N-(4-(2-chlorophenyl)thiazol-2-yl)-5-(4-hydroxypiperidin-1-yl)picolinamide] | +++ (+++: <−6) |
| O=C(Nc1nc(-c2ccccc2Cl)cs1)c1ccc(N2CCOCC2)nn1 [compound 366, N-[4-(2-chlorophenyl)thiazol-2-yl]-6-morpholino-pyridazine-3-carboxamide] | +++ (+++: <−6) |
| Cc1ccc(C(=O)Nc2nc(-c3cccc4c3OCCO4)cs2)cn1 [Compound 342, N-[4-(2,3-dihydro-1,4-benzodioxin-5-yl)thiazol-2-yl]-6-methyl-pyridine-3-carboxamide] | ++ (++: −5 to −6) |
| Cc1ccc(C(=O)Nc2nc(-c3cccnc3)cs2)cn1 [Compound 323, 6-methyl-N-[4-(3-pyridyl)thiazol-2-yl]pyridine-3-carboxamide] | + (+: >−5) |
| O=C(Nc1nc(-c2ccccc2Cl)cs1)C1CCC(N2CCOCC2)CC1 (stereo not shown) [compound 432] | − (−: inactive) |
| CN1CCC(C(=O)Nc2nc(-c3ccccc3Cl)cs2)CC1 [compound 324, N-[4-(2-chlorophenyl)thiazol-2-yl]-1-methyl-piperidine-4-carboxamide] | ++ (++: −5 to −6) |
| CN1CCC[C@H](C(=O)N2CCN(c3ccc(C(=O)Nc4nc(-c5ccccc5Cl)cs4)nc3)CC2)C1 [Compound 486, (S)—N-(4-(2-chlorophenyl)thiazol-2-yl)-5-(4-(1-methylpiperidine-3-carbonyl)piperazin-1-yl)picolinamide] | +++ (+++: <−6) |
| CN1CCC(Oc2ccc(C(=O)Nc3nc(-c4ccccc4Cl)cs3)nc2)CC1 [compound 439, N-(4-(2-chlorophenyl)thiazol-2-yl)-5-((1-methylpiperidin-4-yl)oxy)picolinamide] | +++ (+++: <−6) |
| Cc1ccc(C(=O)Nc2nc(-c3ccccc3Cl)cs2)cn1 [compound 318, N-[4-(2-chlorophenyl)thiazol-2-yl]-6-methyl-pyridine-3-carboxamide] | +++ (+++: <−6) |
| Cc1ncccc1-c1csc(NC(=O)c2ccc(N3CCOCC3)cn2)n1 [compound 371, N-[4-(2-methyl-3-pyridyl)thiazol-2-yl]-5-morpholino-pyridine-2-carboxamide] | ++ (++: −5 to −6) |
| O=C(Nc1nc(-c2ccccc2Cl)cs1)C1CC(C(=O)N2CCOCC2)C1 (stereo not shown) [compound 427] | − (−: inactive) |
| COc1ccc(C(=O)Nc2nc(-c3cnccc3C)cs2)cc1 [Compound 333, 4-methoxy-N-[4-(4-methyl-3-pyridyl)thiazol-2-yl]benzamide] | ++ (++: −5 to −6) |
| O=C(Nc1nc(-c2ccccc2Cl)cs1)c1ccc(N2CCC3(CC2)COC3)cn1 [Compound 448, N-(4-(2-chlorophenyl)thiazol-2-yl)-5-(2-oxa-7-azaspiro[3.5]nonan-7-yl)picolinamide] | +++ (+++: <−6) |
| CN1CCC[C@H]1C(=O)N1CCN(c2ccc(C(=O)Nc3nc(-c4ccccc4Cl)cs3)nc2)CC1 [Compound 466, N-(4-(2-chlorophenyl)thiazol-2-yl)-5-(4-(methylprolyl)piperazin-1-yl)picolinamide] | +++ (+++: <−6) |
| O=C(Nc1nc(-c2ccccc2Cl)cs1)c1ccc(N2CCOCC2)nc1 [compound 346, N-[4-(2-chlorophenyl)thiazol-2-yl]-6-morpholino-pyridine-3-carboxamide] | +++ (+++: <−6) |
| O=C(Nc1nc(-c2ccccc2Cl)cs1)C12CC(C(=O)N3CCOCC3)(C1)C2 [compound 420] | + (+: >−5) |
